Experimental data from US7473682B2, “Angiogenic peptides and uses thereof” (Ramot at Tel Aviv University Ltd., priority 2003, dated 2009).
“Also recorded” adds a separate entry of the source.

Legend:
HUVECs (ECs) [1] = assay: Tube formation assay, ECs (HUVECs); type: cell-based, human; details: for EC tube formation compared to untreated cells: normoxic conditions, 10 ng/ml, matrigel
Experimental: Tube formation assay—ECs from passage 3 or MVECs from passage 4 were harvested with trypsin and incubated for 24 hours in SFM. Twenty-four—well plates were pre-coated with 250 μl of Cultrex Basement Membrane Extract with reduced growth factors (R&D Systems, Minneapolis, Minn., USA). Five hundred microliters of medium containing 10^6 cells were transferred to the coated wells. Synthetic peptides, FGF, YR, QF, or VL were added to ECs, and VEGF, YR, QF, or VL were added to MVECs at 10 ng/ml. Plates were incubated for 24 hours at 37° C. in the presence of 5% CO2. HUVECs and MVECs were photographed under a light microscope at 20 hours and 8 hours, respectively.
Tube formation assay after and under hypoxia treatment—Tube formation assay was performed as described in Example 3, hereinabove, except that the cells were divided to 3 groups: control cells, cells after exposure to hypoxia conditions, and cells on matrigel basement that form tubes under hypoxia treatment.

HUVECs (ECs) [2] = assay: EC (HUVEC) migration assay with synthetic peptides; type: cell-based, human; details: 5, 10, 20 and 50 ng/ml, 5 hours
Experimental: Migration assays in the presence of synthetic peptides—EC migration was evaluated as described in Example 2, hereinabove. Following typsinization, ECs (25×10^3) were incubated in migration chambers. For the chemoattactant migration assay, synthetic peptides were added to the feeder tray at 5, 10, 20, and 50 ng/ml and incubated with the cells for 5 or 15 hours. For migration activation assays, synthetic peptides at 0.1, 1, and 10 ng/ml were incubated with the cells in the migration chamber for 5 or 15 hours.
(§1) Synthetic peptides induced proliferation or migration after and under hypoxia treatment—Cell proliferation or migration assays were performed as described in Example 3, hereinabove, except that cells were divided to 3 groups: control cells, cells after exposure to hypoxia conditions or cells proliferating under hypoxia conditions. For cell proliferation assays, ECs were incubated with QF, LT and SP and MVECs were incubated with LT, SP, and YR. For cell migration assays, ECs were incubated with EBM-2 and MVECs were incubated with EBM-MV media.

HUVECs (ECs) [3] = assay: Proliferation of ECs (HUVECs) in the presence of synthetic peptides ([^3H]-Thymidine uptake); type: cell-based, human; details: for Highest proliferative response of ECs, fold increase / [^3H]-Thymidine uptake in ECs: normoxia; for [^3H]-Thymidine uptake in ECs: 0.05-100 ng/ml; for [^3H]-Thymidine uptake in ECs / [^3H]-Thymidine uptake / proliferation of ECs under and following hypoxia: 24 hours
Experimental: Proliferation of ECs in the presence of synthetic peptides—ECs were incubated in the presence of EBM-2 medium containing supplements (Cambrex BioWhittaker Cell Biology Products, Walkersville, USA). Cells were passaged every 3 days by harvesting cells with 0.25% […] (Biological Industries) and re-plating the cells at a concentration of 10^4 cells per a 25 cm^2 flask. ECs from passage 3 were used for proliferation experiments.
ECs (12×10^3 cells/well) were seeded on 24-well plates in EBM-2 medium containing supplements. Following a 24-hours incubation, cells were subjected to 24 hours of starvation in supplements-free medium (SFM). Synthetic peptides (SP, LT, TR, and VL) were each added at concentrations of 0.05, 0.1, 1, 10, or 100 ng/ml for 24 hours. For a proliferation assay, 2 μCi/well of [^3H]-Thymidine (SIGMA, Rehovot, Israel) were added for a 6-hour incubation, following which the plates were washed 3 times with PBS. For cell lysis, the plates were incubated for 15 minutes at 37° C. with 300 μl/well of 0.5 M NaOH. Subsequently, cell lysates were transferred to scintillation vials containing 2 ml of scintillation liquid (Ultima Gold, Packard Bioscience, Meriden, Conn., USA) and counted (cpm/min) in a β counter (Scintillation β Counter 1600 TR, Packard A Camberra Company, Meriden, Conn., USA).
as §1

[4] = test system: dermal microvascular endothelial cells (MVECs); assay: Proliferation of dermal microvascular endothelial cells (MVECs) in the presence of synthetic peptides; type: cell-based; details: for Increase of MVECs proliferation response / [^3H]-Thymidine uptake in MVECs: normoxia; for [^3H]-Thymidine uptake in MVECs: 0.1-100 ng/ml, 24 hours
Experimental: Proliferation of dermal microvascular endothelial cells (MVECs) in the presence of synthetic peptides—MVECs were incubated with synthetic peptides (LT, SP, and YR) as described above for HUVECs (ECs), except that the MVECs were seeded in EBM-MV medium containing supplements (Cambrex BioWhittaker Cell Biology Products) and MVECs from passage 4 (rather than 3) were used for proliferation experiments.
as §1

ECs (HUVECs) = assay: EC migration assay with peptide-presenting phages (Chemicon QCM 96-well Migration Assay); type: cell-based, human; details: 5 hours; for Migration of activated ECs (phages with ECs in migration chamber): 10^5 or 10^6 phages per well
Experimental: EC migration assay—EC migration was evaluated by the Chemicon QCM 96-well Migration Assay (Chemicon International, Temecula, Calif., USA) according to the manufacturer's instructions. Briefly, the kit's migration chamber comprises an insert membrane with 8 μm pores and a feeder tray containing the peptides as chemoattractants. Cell migration was evaluated by placing the cells in the migration chamber and following their migration to the bottom of the membrane.
For the migration/chemoattractant assay, ECs from passage 3 were incubated for 24 hours on gelatin-coated plates in the presence of the M199 SFM. Following trypsinization, 2×10^4 ECs were incubated for 5 hours in each of the 96 wells of the migration chamber. The peptide-presenting phages (10^5 or 10^6) were added to the feeder tray to chemoattractant the cells without being in physical contact with the cells. Cells which reached the bottom of the membrane (i.e., migratory cells) were dissociated from the membrane following the incubation with a cell detachment buffer. The migratory cells were subsequently lysed and detected by the molecular probe CyQuant GR dye which exerts green fluorescent enhancement when bound to cellular nucleic acid.
For activation migration assays, 10^5 or 10^6 peptide-presenting phages were incubated (for 5 hours) with ECs in the migration chamber. NO phages (unmodified M13 phages) served as negative control in both migration assays. Results were determined by a fluorescent ELISA reader at 480/520 nm (Fluostar BMG Lab Teck) and are presented in net values from which the control values were subtracted.

Row | Sequence | EC tube formation compared to untreated cells (HUVECs (ECs) [1]) | EC migration, peptides as chemoattractants in feeder tray (HUVECs (ECs) [2]) | Increase of EC proliferation after hypoxia (HUVECs (ECs) [3]; 10 ng/ml) [fold] | Highest proliferative response of ECs, fold increase (HUVECs (ECs) [3]; 10 ng/ml) [fold] | [^3H]-Thymidine uptake in ECs (HUVECs (ECs) [3]) | [^3H]-Thymidine uptake / proliferation of ECs under and following hypoxia (HUVECs (ECs) [3]) | Increase of EC proliferation under hypoxia (HUVECs (ECs) [3]; under hypoxia, 1 ng/ml) [fold] | [^3H]-Thymidine uptake / proliferation of MVECs after and under hypoxia [4] | Increase of MVECs proliferation after hypoxia ([4]; 1 ng/ml) [fold] | Increase of MVECs proliferation response ([4]; 1 ng/ml) [fold] | [^3H]-Thymidine uptake in MVECs [4] | Increase of MVECs proliferation under hypoxia ([4]; 10 ng/ml) [fold] | Migration of activated ECs (phages with ECs in migration chamber) (ECs (HUVECs)) | EC migration, phages as chemoattractants on feeder tray (ECs (HUVECs); 10^6 phages per well) | EC tube formation under hypoxia (HUVECs (ECs) [1]; under hypoxia conditions, 18 hours) | Increase of MVECs proliferation after hypoxia ([4]; 10 ng/ml) [fold] | Increase of MVECs proliferation under hypoxia ([4]; 1 ng/ml) [fold] | Highest proliferative response of ECs, fold increase (HUVECs (ECs) [3]; 1 ng/ml) [fold] | EC migration, phages as chemoattractants on feeder tray (ECs (HUVECs); 10^5 phages per well)
1 | LLADTTHHRPWT (Phage displayed peptide) [LT] | did not induce tube formation | dose-dependent induced migration | 3.5 | 1.7 | significant dose-dependent increase | significant dose-dependent increase | 1.7 | significant dose-dependent increase | 1.7 | 1.8 | significant increase | 1.7 | induced migration | induce migration as chemoattractants | – | – | – | – | –
2 | QPWLEQAYYSTF (Phage displayed peptide) [QF] | increased tube formation; also recorded: significant increase in tube formation | – | – | – | – | did not show increase in proliferation | – | did not show increase proliferation | – | – | – | – | induced migration | induce migration as chemoattractants | – | – | – | – | –
3 | SAHGTSTGVPWP (Phage displayed peptide) | did not induce tube formation | dose-dependent induced migration | 2 | 1.6 | significant dose-dependent increase | significant dose-dependent increase | – | significant dose-dependent increase | – | 1.4 | significant increase | – | – | induce migration as chemoattractants | effective only in tube formation under hypoxia conditions | 1.5 | 1.9 | – | –
4 | TLPWLEESYWRP (Phage displayed peptide) [TR] | – | smaller effect of induced migration | – | 1.8 | significant dose-dependent increase | – | – | – | – | – | – | – | – | induce migration as chemoattractants | – | – | – | – | –
5 | VPWMEPAYQRFL (Phage displayed peptide) [VL] | increased tube formation | smaller effect of induced migration | – | – | significant dose-dependent increase | – | – | – | – | – | – | – | – | – | – | – | – | 1.8 | –
6 | YPHIDSLGHWRR (Phage displayed peptide) [YR] | increased tube formation | – | – | – | – | – | – | – | – | 1.7 | significant increase | – | – | – | – | – | – | – | induce migration as chemoattractants
